Tests used:
F508del-CFTR [1] = target: T1, F508del-CFTR (Homo sapiens, UniProt P13569, DEL508-508); assay: Live-cell photoaffinity labeling, streptavidin pull-down and CFTR Western blot; assay type: binding
T1 construct: expressed in transfected cells
Procedure: (§1) Wt-CFTR or F508del-CFTR CFBE41o- cells were plated at 2–2.5 × 10^6 cells/plate in 6 cm diameter dishes. The day after, sodium butyrate (5–2.5 mM) was added for 24 h; next, the medium was exchanged with fresh one supplemented with DMSO (0.25%) (276855, Sigma-Aldrich) or probe (1 μM). For competition experiments, a 25-fold excess of ARN23765 (25 μM) was added 30 min before probe’s addition. For the analysis of “corrected” F508del-CFTR, F508del-CFTR CFBE41o- cells were kept at 27 °C for 24 h before adding the probes. Probes were incubated with cells for 2 h, then the medium was removed, and plates were washed twice with phosphate buffer saline (PBS). Cells were placed on ice and irradiated for 5 min at a wavelength of 365 nm using a 100-W UV-lamp (95–0127–02 model B100-AP, Analytik Jena). Cells were harvested with trypsin (T4299, Sigma-Aldrich), washed with PBS (D8537, Sigma-Aldrich), and pellets were stored at −80 °C until used, centrifuged at 300 × g and washed twice with PBS (D8537, Sigma-Aldrich). Pellets from in-cell photoaffinity labeling with alkyne-probes (PAP_1 and PAP_2) were lysed in PBS plus protease inhibitor cocktail (78429, Thermo Scientific) by sonication. The suspension was centrifuged at 800 × g for 20 min at 4 °C to discard nuclei and cell debris. The total extracted proteins were quantified with the bicinchoninic acid (BCA) protein assay (23225, Thermo Scientific) and subjected to CuAAC before proceeding with pull-down. Pellets from in-cell photoaffinity labeling with desthio-biotinylated (DS-biot) probes (PAP_1 DS-biot, PAP_2 DS-biot, PAP_N1 DS-biot, PAP_N2 DS-biot) were lysed with a modified RIPA buffer [50 mM tris-HCl pH 8, 150 mM NaCl, 0.5% Triton-X100, 0.2% SDS, 1 mM ethylenediaminetetraacetic acid (EDTA)] supplemented with protease inhibitor cocktail and centrifuged at 10.000× g for 10 min. The protein content in the supernatant was quantified by BCA protein assay. Protein lysate (200 μg) was diluted to 800 μL and the Triton-X100 percentage was reduced to 0.2% before proceeding to pull-down.
(§2) High capacity streptavidin agarose (20359, Thermo Scientific) (25 μL) was added to PAP-labeled cell extracts for 1 h at room temperature under gentle rotation. The streptavidin beads were collected by centrifugation and washed four times with lysis buffer. Resin-bound proteins were eluted with 45 μL of 5 mM biotin (B4501, Sigma-Aldrich) for 30 min at room temperature and analyzed with Western blot for CFTR expression. Input samples (4 and 8 μg for wt-CFTR and F508del-CFTR CFBE41o-, respectively) were collected immediately before incubation with streptavidin resin. Input and pulled-down samples were analyzed with WB as described in the supplementary methods.

F508del-CFTR [2] = target: T1, F508del-CFTR; assay: HS-YFP functional assay in CFBE41o- cells stably overexpressing F508del-CFTR; assay type: cell-based; details: 24 h treatment
Procedure: These analogues were tested in the functional assay on the human bronchial epithelia-derived cell line, CFBE41o-, which stably overexpresses F508del-CFTR and the halide-sensitive yellow fluorescent protein (HS-YFP).[31] […]
(§3) HS-YFP-based assay for CFTR activity
(§4) Twenty-four hours after seeding on 96-well plates, CFBE41o- cells stably over-expressing F508del-CFTR and the HS-YFP were treated with test compounds at different concentrations in the 3 nM-10 µM range.1 Cells treated with vehicle alone (DMSO) and with ARN23765, respectively, served as negative and positive controls. The following day, cells were washed with PBS containing (in mM) 137 NaCl, 2.7 KCl, 8.1 Na2HPO4, 1.5 KH2PO4, 1.0 CaCl2, and 0.5 MgCl2. Cells were then incubated for 25 min with […] of PBS plus forskolin (20 µM) and VX-770 (1 µM) to maximally stimulate F508del-CFTR. Cells were then transferred to a microplate reader (FluoStar Galaxy; BMG Labtech, Offenburg, Germany) for CFTR activity determination. The plate reader was equipped with high-quality excitation (HQ500/20X: 500 ± 10 nm) and emission (HQ535/30M: 535 ± 15 nm) filters for YFP (Chroma Technology). Each assay comprised a continuous 14 s fluorescence reading, 2 s before and 12 s after injection of […] of an iodide-containing solution (PBS with Cl- replaced by I-; final I- concentration […]). Data were normalized to the initial background-subtracted fluorescence. To determine I- influx rate, the final 11 s of the data for each well were fitted with an exponential function to extrapolate initial slope (dF/dt). Reproducibility of results was confirmed by performing three independent experiments. […]

wt-CFTR = target: T2, wt-CFTR (Homo sapiens, UniProt P13569); assay: Live-cell photoaffinity labeling, streptavidin pull-down and CFTR Western blot; assay type: binding; details: wt-CFTR CFBE41o- cells, probe 1 μM, 2 h, UV 365 nm
T2 construct: expressed in transfected cells
T2 sequence (P13569 whole entry): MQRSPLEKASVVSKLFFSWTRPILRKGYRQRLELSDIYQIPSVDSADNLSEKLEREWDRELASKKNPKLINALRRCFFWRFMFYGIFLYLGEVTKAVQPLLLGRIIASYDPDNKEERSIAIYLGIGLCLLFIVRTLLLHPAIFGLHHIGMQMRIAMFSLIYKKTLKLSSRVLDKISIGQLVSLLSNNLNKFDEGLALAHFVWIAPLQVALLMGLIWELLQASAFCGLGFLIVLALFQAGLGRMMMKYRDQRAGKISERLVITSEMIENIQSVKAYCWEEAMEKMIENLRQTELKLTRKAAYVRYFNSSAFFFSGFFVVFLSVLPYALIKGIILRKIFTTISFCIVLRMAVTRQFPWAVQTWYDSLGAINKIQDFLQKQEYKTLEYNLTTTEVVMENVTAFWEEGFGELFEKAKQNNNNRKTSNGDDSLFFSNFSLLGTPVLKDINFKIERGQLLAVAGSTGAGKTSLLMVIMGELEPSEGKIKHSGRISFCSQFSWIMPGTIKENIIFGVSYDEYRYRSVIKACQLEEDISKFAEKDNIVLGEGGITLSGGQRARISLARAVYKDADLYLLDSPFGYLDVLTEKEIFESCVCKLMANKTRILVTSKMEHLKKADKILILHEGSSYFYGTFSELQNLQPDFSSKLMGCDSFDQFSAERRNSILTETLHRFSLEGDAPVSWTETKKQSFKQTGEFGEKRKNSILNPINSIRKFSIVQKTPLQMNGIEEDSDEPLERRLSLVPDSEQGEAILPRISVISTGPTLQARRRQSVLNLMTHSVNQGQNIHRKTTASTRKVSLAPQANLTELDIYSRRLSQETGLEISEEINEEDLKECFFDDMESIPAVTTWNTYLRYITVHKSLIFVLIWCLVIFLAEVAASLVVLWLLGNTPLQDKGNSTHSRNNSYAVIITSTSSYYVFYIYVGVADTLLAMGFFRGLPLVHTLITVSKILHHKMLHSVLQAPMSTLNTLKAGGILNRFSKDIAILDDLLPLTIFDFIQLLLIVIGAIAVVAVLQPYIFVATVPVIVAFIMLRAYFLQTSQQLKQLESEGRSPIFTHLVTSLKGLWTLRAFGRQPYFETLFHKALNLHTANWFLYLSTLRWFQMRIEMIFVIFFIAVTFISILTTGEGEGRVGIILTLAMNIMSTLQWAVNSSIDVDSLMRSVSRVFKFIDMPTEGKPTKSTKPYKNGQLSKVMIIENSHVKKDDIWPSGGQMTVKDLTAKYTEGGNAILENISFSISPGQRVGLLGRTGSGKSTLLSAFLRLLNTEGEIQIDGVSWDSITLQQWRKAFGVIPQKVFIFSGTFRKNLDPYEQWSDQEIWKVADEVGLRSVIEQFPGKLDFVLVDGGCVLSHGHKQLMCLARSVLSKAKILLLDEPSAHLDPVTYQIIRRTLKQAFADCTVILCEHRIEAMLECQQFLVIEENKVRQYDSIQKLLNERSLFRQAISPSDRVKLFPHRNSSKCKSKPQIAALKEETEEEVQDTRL
Procedure: as §1
Copper-catalyzed azide–alkyne cycloaddition (CuAAC) was performed according to a previously described protocol.[62] Briefly, to the protein preparation (250 μL at 1 mg/mL protein concentration) the following reagents were added at the indicated final concentrations: 100 μM 5/6-TAMRA-azide-desthiobiotin (CLK-1110–5, Jena Bioscience), 1.0 mM tris-(2-carbossietil)phosphine (TCEP, C4706, Sigma-Aldrich), 100 μM tris-[(1-benzyl-1H-1,2,3-triazol-4-yl)methyl]amine (TBTA, 678937, Sigma-Aldrich), 1.0 mM CuSO4.5H2O (Sigma), and 0.8% sodium dodecyl sulfate (SDS). TBTA was first dissolved in DMSO at 83.5 mM and then diluted with four volumes of tert-butanol. The reaction was mixed by vortexing and incubated for 1 h at 25 °C. After the reaction time, proteins were precipitated with 5 volumes of cold acetone overnight at −20 °C. Samples were centrifuged for 20 min at 20.000× g, and the pellets were washed with methanol, air-dried, and finally resuspended with 600 μL of 1% SDS. SDS concentration was then diluted to 0.2% with PBS before proceeding to pull-down.
as §2

CFTR = assay: Live-cell photoaffinity labeling in CFTR–/– CFBE41o- cells (control); assay type: binding, human; details: probe 1 μM, 2 h
F508del/R1070W-CFTR [3] = target: T3, F508del/R1070W-CFTR (Homo sapiens, UniProt P13569, DEL508-508/R1070W); assay: FLIPR membrane potential assay of CFTR channel activity in transfected HEK293 cells; assay type: cell-based; details: HEK293, 24 h; ARN23765 10 nM, VX-661 3 μM
T3 construct: CFTR identification in pull-down studies and analysis of full-length CFTR in protein maturation assays; expressed in transfected cells; host or cells: HEK293 (transient)
T3 sequence (P13569 with tags, fused parts or gaps DEL508-508/R1070W): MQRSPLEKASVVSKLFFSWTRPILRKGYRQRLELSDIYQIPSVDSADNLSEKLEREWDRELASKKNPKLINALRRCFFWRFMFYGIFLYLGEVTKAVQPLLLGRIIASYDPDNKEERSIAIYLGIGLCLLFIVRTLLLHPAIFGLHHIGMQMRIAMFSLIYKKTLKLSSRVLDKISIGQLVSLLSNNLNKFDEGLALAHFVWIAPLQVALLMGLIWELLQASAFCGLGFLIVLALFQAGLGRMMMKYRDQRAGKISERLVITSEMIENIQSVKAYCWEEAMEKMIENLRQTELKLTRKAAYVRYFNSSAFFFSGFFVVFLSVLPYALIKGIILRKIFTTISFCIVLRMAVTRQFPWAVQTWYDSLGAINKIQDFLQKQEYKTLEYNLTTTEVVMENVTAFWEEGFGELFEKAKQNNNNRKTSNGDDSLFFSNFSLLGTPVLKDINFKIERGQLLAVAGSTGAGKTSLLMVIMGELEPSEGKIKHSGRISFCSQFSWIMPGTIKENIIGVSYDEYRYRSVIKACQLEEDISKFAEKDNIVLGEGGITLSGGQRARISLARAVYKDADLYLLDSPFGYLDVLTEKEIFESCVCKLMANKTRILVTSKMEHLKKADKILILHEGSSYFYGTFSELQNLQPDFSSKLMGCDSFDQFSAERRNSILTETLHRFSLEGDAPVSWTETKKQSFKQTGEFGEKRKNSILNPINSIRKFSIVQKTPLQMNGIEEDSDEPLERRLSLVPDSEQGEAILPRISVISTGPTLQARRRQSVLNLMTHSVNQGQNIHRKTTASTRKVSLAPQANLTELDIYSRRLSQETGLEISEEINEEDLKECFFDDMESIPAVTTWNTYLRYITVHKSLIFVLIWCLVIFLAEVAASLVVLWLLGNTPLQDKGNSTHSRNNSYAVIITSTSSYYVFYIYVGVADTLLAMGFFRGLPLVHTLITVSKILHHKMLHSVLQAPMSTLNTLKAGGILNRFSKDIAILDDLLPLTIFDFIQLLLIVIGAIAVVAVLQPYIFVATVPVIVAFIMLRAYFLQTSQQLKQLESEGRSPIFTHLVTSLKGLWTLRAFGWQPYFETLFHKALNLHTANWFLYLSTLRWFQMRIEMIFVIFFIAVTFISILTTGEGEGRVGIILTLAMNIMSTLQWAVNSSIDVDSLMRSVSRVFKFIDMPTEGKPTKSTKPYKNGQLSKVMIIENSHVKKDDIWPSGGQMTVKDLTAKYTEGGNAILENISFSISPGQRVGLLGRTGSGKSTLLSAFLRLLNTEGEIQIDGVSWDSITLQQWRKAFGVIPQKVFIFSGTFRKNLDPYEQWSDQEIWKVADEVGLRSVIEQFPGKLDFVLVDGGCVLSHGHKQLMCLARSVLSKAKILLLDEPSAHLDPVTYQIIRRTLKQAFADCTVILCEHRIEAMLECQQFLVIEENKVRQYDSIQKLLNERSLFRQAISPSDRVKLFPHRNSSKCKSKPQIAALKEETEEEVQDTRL
Procedure: as §3
as §4, with “fluorescence.” for “fluorescence. To determine I- influx rate, the final 11 s of the data for each well were fitted with an exponential function to extrapolate initial slope (dF/dt). Reproducibility of results was confirmed by performing three independent experiments.”
Cell lysates or eluates from pull-down experiments were resolved by SDS-PAGE on 4-8 % tris-acetate gels (EA0378BOX, Life technologies) and were transferred into PVDF membranes (Immobilion-E IEVH00005, Millipore). […] Images were acquired with Chemidoc MP (BIO-RAD laboratories) and quantified with Image J software.
CFTR Channel function analysis by fluorometric imaging plate reader functional (FLIPR) assay FLIPR assay was performed as previously described.3 Briefly, HEK293 cells were seeded in 96-well plates (black, flat bottom, Corning) and transfected with mutated CFTR constructs. […]
µM) for 24 h at 30 °C or 37 °C. […] The plate was then read in a fluorescence plate reader (SpectraMax i3, Molecular Devices) at 37 °C (excitation: 530 nm, emission: 560 nm). […] CFTR-mediated depolarization was detected as an increase in fluorescence. […] The peak changes in fluorescence were normalized to fluorescence immediately […]

F508del/R1070W-CFTR [4] = target: T3, F508del/R1070W-CFTR; assay: Protein maturation assay (WB, band C/(C+B)) in transfected HEK293 cells; assay type: cell-based; details: HEK293, 24 h; ARN23765 10 nM, VX-661 3 μM
Procedure: HEK293 cells were plated in 24-wells at around 80% of confluence and transfected with constructs coding for F508del-CFTR or mutants using JetPEI reagent (101000053, Polyplus Technology) following the manufacturer’s instructions. After 24 h, the correctors were added for a further 24 h. […] For binding site analysis experiments, the cells were kept either at 37 °C (Figure S8) or moved to 30 °C (Figure 9) during incubation with the selected correctors. VX-445 and corrector 3151 were mixed together as a control for maximal protein correction. DMSO (0.2%) was added to nontreated controls. After treatment, cells were lysed in RIPA buffer [50 mM tris-HCl pH 8, 150 mM NaCl, 1% NP40, 0.5% sodium deoxycolate, 0.1% SDS, 2.0 mM EDTA] and lysates were analyzed with WB, as described in the supplementary methods of the Supporting Information.

T1 sequence (P13569 with tags, fused parts or gaps DEL508-508): as the sequence (P13569 with tags, fused parts or gaps DEL508-508/R1070W) above, with W1069R counted along it

C[C@H]1NC(=O)N[C@H]1CCCCCC(=O)NCCOCCOCCOCCn1cc(-c2ccc(O[C@H]3CCCc4c(C(F)(F)F)nn(-c5cccc(C(=O)N(C)c6ccc(C7(C(F)(F)F)N=N7)cc6)c5)c43)cc2)nn1 [PAP_2 DS-biot, N-Methyl-3-((S)-7-(4-(1-(18-((4S,5R)-5-methyl-2-oxoimidazolidin-4-yl)-13-oxo-3,6,9-trioxa-12-azaoctadecyl)-1H-1,2,3-triazol-4-yl)phenoxy)-3-(trifluoromethyl)-4,5,6,7-tetrahydro-1H-indazol-1-yl)-N-(4-(3-(trifluoromethyl)-3H-diazirin-3-yl)phenyl)benzamide]
CFTR forms in streptavidin pull-down (WB) after PAL (F508del-CFTR [1]; F508del-CFTR CFBE41o- cells kept at 27 °C for 24 h (low-temperature rescue) before PAL): bound and pulled down both F508del-CFTR immature (band B) and mature (band C) protein
CFTR in streptavidin pull-down (WB) after PAL (F508del-CFTR [1]; F508del-CFTR CFBE41o- cells, probe 1 μM, 2 h, UV 365 nm): consistently captured
EC50 (F508del-CFTR [2]; 3 nM-10 µM range): 480 nM
HS-YFP assay in CFBE41o- cells Emax (F508del-CFTR [2]; values normalized to DMSO-incubated cells): 1.4
CFTR in streptavidin pull-down (WB) after PAL (wt-CFTR): consistently captured
CFTR in streptavidin pull-down (WB) after PAL (CFTR): did not detect CFTR

CC(C)(CO)c1cc2cc(NC(=O)C3(c4ccc5c(c4)OC(F)(F)O5)CC3)c(F)cc2n1C[C@@H](O)CO [VX-661, tezacaftor, reference compound]
F508del/R1070W channel activity (FLIPR) (F508del/R1070W-CFTR [3]): further enhanced
F508del/R1070W protein maturation (F508del/R1070W-CFTR [4]): further enhanced
